“And” between values parts separate entries of the source, which are not always exact repeats. Identical values can stand only once. “Also recorded” adds a separate entry of the source. Like-named read-outs stand apart in the source and are kept apart here.
Experiments:
[1] = male, human, in vivo
Experimental: (§1) Pharmacokinetics: Serial blood, urine, and feces were collected at specified times following dosing.
(§2) All samples collected for radioactivity analysis were analyzed for total radioactivity.
Blood samples (4 mL) for whole blood analysis of total radioactivity were collected within 15 minutes pre-dose and at 1, 2, 4, 8, 14, 24, and 72 hours post-dose. Prior to study initiation, the Celerion Scintillation Laboratory supplied to the Celerion clinic complete written instructions for collection, handling, and processing of samples. Samples collected were used to determine the percentage of radioactivity associated with erythrocytes in whole blood over time (calculated only for time points that whole blood was collected).
Individual dosing containers (including the dosage form) were analyzed pre-dose and post-dose for radioactivity, with the (post-dose−pre-dose) difference being the administered dose. Whole blood, plasma, urine, feces, and emesis (if applicable) were analyzed for radioactivity content by liquid scintillation counting procedures. Whole blood and fecal samples were dried and oxidized prior to counting. Detailed reports of scintillation counting method and results for total radioactivity accompany the clinical study report. […]
The Cmax and time to peak concentration (tmax) were directly determined from the observed blood/plasma concentrations data. […]

[2] = Percentage of 14C radioactivity associated with erythrocytes in whole blood (ETR); type: in vivo, human; conditions: single 175 mg oral dose
Experimental: To determine the percentage of radioactivity associated with erythrocytes in whole blood over time (ETR; calculated only for time points that whole blood is collected), the following was calculated:
The amount of ^14C radioactivity in plasma versus whole blood, adjusted for the hematocrit, at the specific time points of comparison (ETR=Xe/Xb=1−[Cp*(1−Hct)/Cb], where Xe and Xb stands for amount of radioactivity in erythrocyte or whole blood, respectively. Hematocrit values for Days-1, 2, and 4 were averaged for use in this calculation.
Blood samples (4 mL) for whole blood analysis of total radioactivity were collected within 15 minutes pre-dose and at 1, 2, 4, 8, 14, 24, and 72 hours post-dose. […] Samples collected were used to determine the percentage of radioactivity associated with erythrocytes in whole blood over time (calculated only for time points that whole blood was collected).
To determine the percentage of radioactivity associated with erythrocytes in whole blood over time (calculated only for time points where whole blood was collected), the following was calculated: the amount of radioactivity in plasma versus whole blood, adjusted for the hematocrit, at the specific time points of comparison (ETR=Xe/Xb=1−[Cp*(1-Hct)/Cb], where Cp stands for amount of radioactivity in plasma and Cb stands for the amount of radioactivity in blood and Hct stands for hematocrit value. Hematocrit values for Days-1, 2, and 4 were averaged for use in this calculation.

[3] = Plasma pharmacokinetics of XL184 and metabolites by LC/MS/MS method; conditions: human, in vivo
Experimental: as §1, §2
Detailed reports of the bioanalytical methodologies and results accompany the clinical study report.
The other minor metabolite in plasma, p-Fluoroaniline, was analyzed by Exelixis using a validated LC/MS/MS method.
PK variables were computed using WinNonlin Professional, version 5.2.

clinical = conditions: human, in vivo
Experimental: Samples for 2 subjects were used for the investigation study. Therefore, only 6 subjects' PK profiles were determined using a radio-quantitation method.

[4] = Safety evaluation (AEs, vital signs, ECG, laboratory tests) in Phase 1 mass balance study; type: in vivo, human
Experimental: Safety: Safety evaluations included assessments of AEs, vital signs, electrocardiogram (ECG), laboratory tests, and concomitant medications. Adverse event seriousness, severity grade, and relationship to study treatment were assessed by the investigator. Severity grade was defined by the National Cancer Institute Common Terminology Criteria for Adverse Events (CTCAE) version 4.0.
Adverse event terms were standardized using the Medical Dictionary for Regulatory Activities and tabulated by system organ class and preferred term.

[5] = cited from earlier work; for CL/F / t1/2 / Tmax / Cmax: single oral 140 mg FBE; for CL/F / t1/2 / Cmax: mean ± CV %; for Tmax: median (minimum, maximum); for Cmax: plasma, n = 72
[6] = rodent and non-rodent models; cited from earlier work
VEGFR2 = VEGFR2 (Mus musculus, UniProt P35918); conditions: administration to mice; Yakes, et al. 2011; cited from earlier work
VEGFR2, sequence (P35918 20-1345): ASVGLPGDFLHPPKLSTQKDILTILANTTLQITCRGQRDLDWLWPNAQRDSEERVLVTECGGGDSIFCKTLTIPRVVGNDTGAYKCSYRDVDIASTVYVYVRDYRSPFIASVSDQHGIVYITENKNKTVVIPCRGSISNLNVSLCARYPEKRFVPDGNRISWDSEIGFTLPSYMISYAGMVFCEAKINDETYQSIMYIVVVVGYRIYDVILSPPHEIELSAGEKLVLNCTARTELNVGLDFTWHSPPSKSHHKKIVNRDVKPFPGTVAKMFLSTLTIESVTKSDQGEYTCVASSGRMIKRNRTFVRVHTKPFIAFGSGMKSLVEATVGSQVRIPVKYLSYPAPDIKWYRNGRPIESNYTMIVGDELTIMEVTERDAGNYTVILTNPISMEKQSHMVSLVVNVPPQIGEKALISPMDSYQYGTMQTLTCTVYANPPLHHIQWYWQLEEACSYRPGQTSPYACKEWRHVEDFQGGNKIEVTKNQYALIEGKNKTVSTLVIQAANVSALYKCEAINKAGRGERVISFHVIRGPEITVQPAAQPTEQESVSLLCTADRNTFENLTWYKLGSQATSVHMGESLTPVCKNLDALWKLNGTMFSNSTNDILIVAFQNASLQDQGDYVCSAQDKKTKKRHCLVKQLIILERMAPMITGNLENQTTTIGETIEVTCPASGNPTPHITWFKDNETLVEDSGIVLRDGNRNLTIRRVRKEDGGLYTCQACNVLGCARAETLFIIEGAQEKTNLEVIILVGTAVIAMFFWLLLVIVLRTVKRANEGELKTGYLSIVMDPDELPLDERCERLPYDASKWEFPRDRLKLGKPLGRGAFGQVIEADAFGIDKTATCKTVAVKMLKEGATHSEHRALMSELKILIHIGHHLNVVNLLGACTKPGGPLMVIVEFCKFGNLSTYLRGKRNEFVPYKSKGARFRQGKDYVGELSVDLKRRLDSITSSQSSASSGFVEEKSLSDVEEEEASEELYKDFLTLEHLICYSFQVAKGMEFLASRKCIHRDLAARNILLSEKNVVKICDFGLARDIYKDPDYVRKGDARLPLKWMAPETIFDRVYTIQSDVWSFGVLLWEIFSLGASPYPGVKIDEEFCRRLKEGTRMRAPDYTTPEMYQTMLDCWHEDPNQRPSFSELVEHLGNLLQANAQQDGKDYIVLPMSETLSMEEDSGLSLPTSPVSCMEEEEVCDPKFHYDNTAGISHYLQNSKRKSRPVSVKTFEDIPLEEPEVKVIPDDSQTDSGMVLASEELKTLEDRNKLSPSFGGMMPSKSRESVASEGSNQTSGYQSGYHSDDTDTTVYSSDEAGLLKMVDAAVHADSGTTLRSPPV

RET = conditions: administration to mice; Yakes, et al. 2011; cited from earlier work
[7] = tested on: tumor models (human medullary thyroid cancer, human breast cancer, and rat glioma); conditions: cited from earlier work
[8] = po, 175 mg, Plasma concentration of XL184 by LC/MS/MS, single 175 mg oral XL184 L-malate, healthy male subjects, […], individual subject

With COc1cc2nccc(Oc3ccc(NC(=O)C4(C(=O)Nc5ccc(F)cc5)CC4)cc3)c2cc1OC [XL184, N-(4-{[6,7-bis(methyloxy)quinolin-4-yl]oxy}phenyl)-N′-(4-fluorophenyl)cyclopropane-1,1-dicarboxamide] the kel of total radioactivity [1] was 0.00308 h⁻¹, the “Percentage of 14C Radioactivity Associated with Erythrocytes in Whole Blood (ETR)” value (shortened to “Percentage”) ([2]; 1.00 h, Max (N=8)) was 14% and the “Percentage” value ([2]; 1.00 h, Mean (N=8)) was 7.08%. For the same compound, the “Percentage” value ([2]; 1.00 h, Median (N=8)) was 8.0%, the “Percentage” value ([2]; 1.00 h, Min (N=8)) was −3.4% and the “Percentage” value ([2]; 1.00 h, individual subjects) was 6.87% and 14.1% (2×) and −3.37% and 9.27% and 3.64% and 9.17% and 2.89%. The “Percentage” value ([2]; 2.00 h, GM, geometric mean (N=8)) was 7.30%, the “Percentage” value ([2]; 2.00 h, Max (N=8)) was 14% and the “Percentage” value ([2]; 2.00 h, Mean (N=8)) was 7.85%. The “Percentage” value ([2]; 2.00 h, Median (N=8)) was 6.7%, the “Percentage” value ([2]; 2.00 h, Min (N=8)) was 4.1% and the “Percentage” value ([2]; 2.00 h, individual subjects) was 6.90% and 13.7% and 6.40% and 4.14% and 5.07% and 5.90% and 10.3% and 10.5%. The “Percentage” value ([2]; 4.00 h, GM, geometric mean (N=8)) was 5.96%, the “Percentage” value ([2]; 4.00 h, Max (N=8)) was 9.0% and the “Percentage” value ([2]; 4.00 h, Mean (N=8)) was 6.40%. For the same compound, the “Percentage” value ([2]; 4.00 h, Median (N=8)) was 6.5%, the “Percentage” value ([2]; 4.00 h, Min (N=8)) was 2.1% and the “Percentage” value ([2]; 4.00 h, individual subjects) was 8.27% and 6.45% and 6.26% and 8.96% and 6.74% and 2.05% and 6.55% and 5.88%. For the same compound, the “Percentage” value ([2]; 8.00 h, GM, geometric mean (N=8)) was 10.9%, the “Percentage” value ([2]; 8.00 h, Max (N=8)) was 17% and the “Percentage” value ([2]; 8.00 h, Mean (N=8)) was 12.2%. The “Percentage” value ([2]; 8.00 h, Median (N=8)) was 13%, the “Percentage” value ([2]; 8.00 h, Min (N=8)) was 3.4% and the “Percentage” value ([2]; 8.00 h, individual subjects) was 12.8% and 17.1% and 13.6% and 17.2% and 12.0% and 3.37% and 15.4% and 6.19%. For the same compound, the “Percentage” value ([2]; 14.00 h, GM, geometric mean (N=8)) was 11.7%, the “Percentage” value ([2]; 14.00 h, Max (N=8)) was 17% and the “Percentage” value ([2]; 14.00 h, Mean (N=8)) was 12.3%. For the same compound, the “Percentage” value ([2]; 14.00 h, Median (N=8)) was 13%, the “Percentage” value ([2]; 14.00 h, Min (N=8)) was 6.1% and the “Percentage” value ([2]; 14.00 h, individual subjects) was 6.13% and 17.0% and 12.1% and 7.45% and 12.7% and 14.1% and 14.0% and 14.9%. For the same compound, the “Distribution of radioactivity between plasma and red blood cells” value [2] was “present primarily in plasma and not markedly associated with red blood cells”, the concentration at 8 h ([3]; po, 175 mg, Plasma Concentrations of XL184 by LC/MS/MS Method, single 175 mg oral dose, Min (N=8)) was 267 ng/mL and the concentration at 8 h ([3]; po, 175 mg, Plasma Concentrations of XL184 by LC/MS/MS Method, single 175 mg oral dose, individual subjects) was 532 ng/mL. It also gave a concentration at 14 h ([3]; po, 175 mg, Plasma Concentrations of XL184 by LC/MS/MS Method, 14.00 h, single 175 mg oral dose, individual subjects) of 488 ng/mL, a concentration at 48 h [3, 8] of 352 ng/mL and a concentration at 120 h [3, 8] of 156 ng/mL. For the same compound, the AUC0-24 ([3]; male) was 14300 ± 2600 (18) h · ng/mL, the AUC0-72 ([3]; male) was 35000 ± 6770 (19) h · ng/mL and the AUC0-inf ([3]; male) was 68000 ± 6910 (10) h · ng/mL. The AUC0-t ([3]; male) was 67200 ± 6880 (10) h · ng/mL, the Tmax ([3]; male) was 1.49 (1.00, 3.00) h and the Tmax ([3]; male, Tmax) was ~1.49 h. For the same compound, the AUC0-t ([3]; male, po, 175 mg, AUC0-24) was 17600 ng·h/mL, the AUC0-t ([3]; male, po, 175 mg, AUC0-72) was 46800 ng·h/mL and the AUC0-inf ([3]; male, po, 175 mg, AUC0-inf) was 73100 ng·h/mL. For the same compound, the AUC0-t ([3]; male, po, 175 mg, AUC0-t) was 72900 ng·h/mL, the Cmax ([3]; male, po, 175 mg, Cmax) was 1250 ng/mL and the half-life ([3]; male, po, 175 mg, t1/2) was 69 h. It also gave an AUC0-24 (clinical) of 10700 ± 3170 h · ngEq/mL, an AUC0-72 (clinical) of 23800 ± 9340 h · ngEq/mL and an AUC0-inf (clinical) of 40300 ± 12300 h · ngEq/mL. For the same compound, the AUC0-t (clinical) was 38100 ± 12800 h · ngEq/mL, the concentration at 0.5 h (clinical; po, 175 mg, Plasma concentration, 0.50 h, individual subject, single 175 mg oral [14C]-XL184 (100 μCi), healthy male subjects, radio-quantitative method) was 283 ng/mL and the concentration at 5 h (clinical; po, 175 mg, Plasma concentration, 5.00 h, individual subject, single 175 mg oral [14C]-XL184 (100 μCi), healthy male subjects, radio-quantitative method) was 512 ng/mL. The concentration at 336 h (clinical; po, 175 mg, Plasma concentration, 336.00 h, individual subject, single 175 mg oral [14C]-XL184 (100 μCi), healthy male subjects, radio-quantitative method) was 10.3 ng/mL, the concentration at 72 h (clinical; po, 175 mg, Plasma concentration, individual subject, single 175 mg oral [14C]-XL184 (100 μCi), healthy male subjects, radio-quantitative method) was 101 ng/mL and the ke1 (clinical; male) was 0.0112 ± 0.0053 h⁻¹. For the same compound, the Tmax (clinical; male, Tmax) was ~1.99 h, the concentration at 72 h (clinical; male, po, 175 mg, Plasma concentration, Mean, N=6, single 175 mg oral [14C]-XL184 (100 μCi), healthy male subjects, radio-quantitative method) was 159 ng/mL and the concentration at 72 h (clinical; male, po, 175 mg, Plasma concentration, Median, N=6, single 175 mg oral [14C]-XL184 (100 μCi), healthy male subjects, radio-quantitative method) was 162 ng/mL. For the same compound, the “Total number of TEAEs” value ([4]; 8 subjects) was 36, the “TEAEs resolved within 1 to 3 days” value ([4]; 31/36) was 86% and the “Severity of one event of treatment related dizziness” value ([4]; CTCAE version 4.0) was “moderate (CTCAE grade 2)”. The “Severity of the majority of TEAEs” value ([4]; CTCAE version 4.0) was “mild in severity (CTCAE grade 1)”, the Laboratory values ([4]; changes from baseline) was “no clinically significant changes from baseline in any laboratory values; also recorded: no notable clinical laboratory findings” and the “Subjects reporting TEAEs assessed as related to the study treatment” value ([4]; five subjects) was 62.5%. For the same compound, the “Vital signs and ECG evaluations” value ([4]; in vivo) was “No remarkable on study results were noted”, the Tolerability ([4]; single 175 mg oral dose) was “well tolerated” and the “Deaths, SAEs, discontinuations due to AEs, other significant AEs” value ([4]; single 175 mg oral dose, 8 healthy male subjects) was “no deaths, other SAEs, discontinuations due to AEs, or other significant AEs”. For the same compound, the “Subjects reporting TEAEs” value ([4]; six of 8 subjects) was 75%, the Subjects reporting flatulence ([4]; three subjects) was 37.5% and the Subjects reporting headache ([4]; three subjects) was 37.5%. The Vomiting after dosing ([4]; within 4 hours of dosing) was “No subject vomited within 4 hours of dosing”, the “% CV of Cmax, AUC0-t, and AUC0-inf” value ([5]; 20 mg (FBE) tablet strength) was 48-72% and the “% CV of Cmax, AUC0-t, and AUC0-inf” value ([5]; 40 mg (FBE) tablet strength) was 42-56%. For the same compound, the “% CV of Cmax, AUC0-t, and AUC0-inf” value ([5]; 60 mg (FBE) tablet strength) was 38-41%, the “% CV of AUC0-inf” value ([5]; 140 mg (FBE) capsule) was ~39% and the “% CV of AUC0-t” value ([5]; 140 mg (FBE) capsule) was ~37%. For the same compound, the “% CV of Cmax” value ([5]; 140 mg (FBE) capsule) was ~43%, the “% CV of AUC0-inf” value ([5]; 140 mg (FBE) tablet) was ~46% and the “% CV of AUC0-t” value ([5]; 140 mg (FBE) tablet) was ~44%. For the same compound, the “% CV of Cmax” value ([5]; 140 mg (FBE) tablet) was “about 54%”, the CL/F ([5]; capsule formulation) was 2.69 ± 32 L/h and the t1/2 ([5]; capsule formulation) was 112 ± 26 h. The Tmax ([5]; capsule formulation) was 4.00 (2.00, 5.04) h, the Cmax ([5]; capsule formulation) was 554 ± 43 ng/mL and the CL/F ([5]; tablet formulation) was 2.61 ± 49 L/h. For the same compound, the t1/2 ([5]; tablet formulation) was 115 ± 31 h, the Tmax ([5]; tablet formulation) was 3.49 (1.99, 24.00) h and the Cmax ([5]; tablet formulation) was 702 ± 54 ng/mL. For the same compound, the Oral bioavailability [6] was “orally bioavailable”, the “Inhibition of VEGFR2 in vivo” value (VEGFR2) was “dose-dependent inhibition” and the “Inhibition of RET in vivo” value (RET) was “dose-dependent inhibition”. For the same compound, the Tumor regression ([7]; human medullary thyroid cancer, human breast cancer, and rat glioma models) was “marked tumor regression”, the Tumor growth inhibition ([7]; multiple tumor models) was “significant tumor growth inhibition” and the Immunohistochemistry findings ([7]; within 24 hours after administration) was “rapid effects on the endothelium, vascular breakdown, and tumor cell death”.

— US11504362B2, “Liquid dosage forms to treat cancer” (Exelixis, Inc., priority 2017, dated 2022)
